Reference: patent US20240351996A1, “CDK19-SELECTIVE INHIBITORS, AND METHODS OF USE THEREOF” (CZ BIOHUB SF, LLC, priority 2022, published 2024)

What was measured:
CDK8 = CDK8 (Homo sapiens, UniProt P49336); test: LanthaScreen europium kinase binding assay (FRET displacement), CDK8
Procedure: (§1) FRET Displacement Assay to Measure IC50: The CDK19/CDK8 IC50 values were measured to evaluate activity and to determine CDK19/CDK8 selectivity. The IC50 values of the disclosed compounds was measured using a LanthaScreen™ europium kinase binding assay (ThermoFisher), as described herein.
[…] An aliquot of the cocktail solution (10 μL) was added to each well of a LUMITRAC™ 200:384 flat bottom, non-treated microtiter white plate. The plate was then covered to protect light sensitive reagents and incubated for 30 min at room temperature to equilibrate before addition of any inhibitors.
(§2) A serial dilution of the compounds was titrated into each well using an automated liquid handling Staccato integrated system at the following concentration(s) (Log10 Molar [C]): −4.5, −5.0, −5.5, −6.0, −6.5, −7.0, −7.5, −8.0 so that a complete dose-response could be calculated. A Tecan microplate reader infinite m200 instrument was then used to measure the FRET signal of each individual well using an excitation of 317/20 nm, emission europium of 620/12 nm, and emission kinase tracer of 665/12 nm after a 3 h incubation period at room temperature until steady-state kinetics were achieved.
(§3) Results were performed in duplicate and were repeated a total of 3 independent times before data was normalized to the DMSO control group and IC50 values reported.

CDK19/CycC = CDK19/CycC (Homo sapiens, UniProt Q9BWU1); test: LanthaScreen europium kinase binding assay (FRET displacement), CDK19; settings: for CDK19 Selectivity: CDK19/CDK8 selectivity based on IC50 values; for IC50: his-tagged CDK19/CycC 5 nM, tracer 10 nM, 3 h incubation
Procedure: as §1
To a kinase buffer cocktail solution (i.e., 5× Kinase Buffer A) was added: purified recombinant his-tagged CDK19/CycC protein (5 nM), ATP-competitive kinase inhibitor scaffold kinase tracer Alexa Fluor® 665 (10 nM), biotin anti-his tag antibody (2 nM), LanthaScreen® europium-streptavidin (2 nM). An aliquot of the cocktail solution (10 μL) was added to each well of a LUMITRAC™ 200:384 flat bottom, non-treated microtiter white plate. The plate was then covered to protect light sensitive reagents and incubated for 30 min at room temperature to equilibrate before addition of any inhibitors.
as §2, §3

Sequence of CDK8 (P49336 whole entry): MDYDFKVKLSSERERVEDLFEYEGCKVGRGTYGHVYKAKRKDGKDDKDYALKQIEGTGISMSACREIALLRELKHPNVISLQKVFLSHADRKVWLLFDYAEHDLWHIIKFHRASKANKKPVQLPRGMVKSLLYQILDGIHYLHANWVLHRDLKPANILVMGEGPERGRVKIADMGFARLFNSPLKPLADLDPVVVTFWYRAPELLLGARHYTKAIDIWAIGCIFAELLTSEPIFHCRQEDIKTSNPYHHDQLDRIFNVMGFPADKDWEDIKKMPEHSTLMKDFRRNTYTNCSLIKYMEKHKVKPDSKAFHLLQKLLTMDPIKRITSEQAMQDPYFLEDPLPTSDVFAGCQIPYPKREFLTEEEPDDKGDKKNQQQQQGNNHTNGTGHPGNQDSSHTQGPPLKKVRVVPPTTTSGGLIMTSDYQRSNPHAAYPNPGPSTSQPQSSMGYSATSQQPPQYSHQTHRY
Sequence of CDK8 (P24863 whole entry partner): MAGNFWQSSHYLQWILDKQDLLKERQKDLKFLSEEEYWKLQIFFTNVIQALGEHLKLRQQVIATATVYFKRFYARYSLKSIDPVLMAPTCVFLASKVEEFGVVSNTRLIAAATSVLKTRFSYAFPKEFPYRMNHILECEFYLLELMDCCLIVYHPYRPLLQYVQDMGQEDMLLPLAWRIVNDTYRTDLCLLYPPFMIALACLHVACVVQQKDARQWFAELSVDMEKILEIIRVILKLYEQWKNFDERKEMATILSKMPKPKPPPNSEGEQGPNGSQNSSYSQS
Sequence of CDK19/CycC (Q9BWU1 whole entry): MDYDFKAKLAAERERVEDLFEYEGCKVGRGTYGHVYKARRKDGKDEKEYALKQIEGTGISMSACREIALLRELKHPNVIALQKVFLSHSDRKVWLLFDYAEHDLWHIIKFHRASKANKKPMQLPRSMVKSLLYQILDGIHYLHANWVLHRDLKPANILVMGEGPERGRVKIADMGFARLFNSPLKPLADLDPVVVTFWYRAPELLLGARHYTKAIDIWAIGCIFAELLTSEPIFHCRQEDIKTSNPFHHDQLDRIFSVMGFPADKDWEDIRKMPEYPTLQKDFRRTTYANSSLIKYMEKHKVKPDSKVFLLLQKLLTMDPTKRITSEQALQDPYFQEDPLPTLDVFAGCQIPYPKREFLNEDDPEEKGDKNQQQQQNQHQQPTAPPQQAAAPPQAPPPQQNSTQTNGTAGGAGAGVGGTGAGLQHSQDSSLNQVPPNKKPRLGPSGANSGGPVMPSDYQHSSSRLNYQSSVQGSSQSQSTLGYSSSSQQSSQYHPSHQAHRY
Sequence of CDK19/CycC (P24863 whole entry partner): as the sequence (P24863 whole entry partner) above

| IC50 (CDK8) [nM] | CDK19 Selectivity (CDK19/CycC) | IC50 (CDK19/CycC) [nM] | Structure (SMILES) |
| --- | --- | --- | --- |
| 23 | 2 | 11 | Cc1cnccc1Nc1cnc(Nc2ccc(CC(C)C)cc2F)nc1 [Compound A59] |
| 7 | 1 | 7.6 | COc1cnccc1Nc1cnc(Nc2ccc(CC(C)C)cc2F)nc1 [Compound A61] |
| 3 | 1.5 | ≤ 2.5 | Cc1cncc(F)c1Nc1cnc(Nc2ccc(CC(C)C)cc2)nc1 [Compound A62] |
| 7790 | 4.8 | 1600 | CC(C)Cc1ccc(Nc2ncc(Nc3cncnc3)cn2)cc1 [Compound A63] |
| 905 | 2.3 | 389 | CCc1cnc(C)cc1Nc1cnc(Nc2ccc(CC(C)C)cc2)nc1 [Compound A64] |
| 2270 | 2 | 1160 | Cc1cc(Nc2cnc(Nc3ccc(CC(C)C)cc3)nc2)c(C)cn1 [Compound A65] |
| 5.8 | 1.2 | 4.6 | Cc1cncc(C)c1Nc1cnc(Nc2ccc(CC(C)C)cc2)nc1 [Compound A66] |
| 106 | 1 | 106 | FC(F)C(F)(F)Oc1ccc(Nc2ncc(Nc3ccncc3OC3CCCC3)cn2)cc1 [Compound A67] |
| 12 | 1 | 12 | CCc1cnccc1Nc1cnc(Nc2ccc(C3CCCCC3)cc2)nc1 [Compound A68] |
| 2670 | 1.9 | 1410 | O=C(c1ccncc1)c1cnc(Nc2ccc(F)cc2)nc1 [Compound A69] |
| 46 | ≥18 | ≤ 2.5 | CC(C)Cc1ccc(Nc2ncc(C(=O)c3ccncc3)cn2)cc1 [Compound A70] |
| 6 | 3 | ≤ 2.5 | Cc1cc(C(=O)c2cnc(Nc3ccc(CC(C)C)cc3)nc2)ccn1 [Compound A71] |
| 34 | ≥14 | ≤ 2.5 | CC(C)Cc1ccc(Nc2ncc(C(=O)c3ccncc3C3CC3)cn2)cc1 [Compound A72] |
| 16 | ≥6 | ≤ 2.5 | Cc1cnccc1C(=O)c1cnc(Nc2ccc(CC(C)C)cc2)nc1 [Compound A73, (2-((4-isobutylphenyl)amino)pyrimidin-5-yl) (3-methylpyridin-4-yl) methanone] |
| 1160 | 3.9 | 296 | O=C(c1ccncc1)c1ccc(Nc2ccc(F)cc2)nc1 [Compound A75] |
| 5100 | 3 | 1720 | CC(C)Cc1ccc(Nc2ccc(-c3ccccc3)cn2)cc1 [Compound A76] |
| 3760 | 3.5 | 1080 | Cc1ccc(-c2ccc(Nc3ccc(CC(C)C)cc3)nc2)cc1 [Compound A77] |
| 13 | 2.6 | 5 | CC(C)Cc1ccc(Nc2ccc(C(=O)c3ccncc3)cn2)cc1 [Compound A78] |
| 10000 | – | 10000 | CC(C)Cc1ccc(Nc2ccc(-c3ccc(C#N)cc3)cn2)cc1 [Compound A79] |
| 10000 | 3 | 3330 | CC(C)Cc1ccc(Nc2ccc(-c3ccncc3)cn2)cc1 [Compound A80] |
| 10000 | – | 10000 | Fc1ccc(Nc2ccc(Oc3ccncc3)cn2)cc1 [Compound A81] |
| 193 | 1.5 | 131 | CC(C)Cc1ccc(Nc2ccc(-c3cccnc3)cn2)cc1 [Compound A82] |
| 8300 | 1 | 5900 | CC(C)Cc1ccc(Nc2ccc(Oc3ccncc3)cn2)cc1 [Compound A83] |
| 10000 | – | 10000 | Fc1ccc(Nc2ccc(Nc3ccncc3)cn2)cc1 [Compound A84] |
| 268 | 3.8 | 72 | CC(C)Cc1ccc(Nc2ccc(Nc3ccncc3)cn2)cc1 [Compound A85] |
| 10000 | 9 | 1110 | Cc1cccc(-c2cnc(Nc3ccc(CC(C)C)cc3)nc2)c1 [Compound A86] |
| 198 | 2.4 | 84 | CC(C)Cc1ccc(Nc2ncc(-c3cccnc3)cn2)cc1 [Compound A87] |

| IC50 (CDK8) [nM] | CDK19 Selectivity (CDK19/CycC) | IC50 (CDK19/CycC) [nM] | Structure (SMILES) |
| --- | --- | --- | --- |
| 1490 | 2.7 | 557 | Cc1cc(C)cc(-c2cnc(Nc3ccc(CC(C)C)cc3)nc2)c1 [Compound A88] |
| 10000 | – | 10000 | CC(C)Cc1ccc(Nc2ncc(-c3ccc(C#N)cc3)cn2)cc1 [Compound A89] |
| 4860 | 4.6 | 1060 | Cc1cc(C#N)ccc1-c1cnc(Nc2ccc(CC(C)C)cc2)nc1 [Compound A90] |
| 10000 | 12 | 798 | Cc1cc(-c2cnc(Nc3ccc(CC(C)C)cc3)nc2)ccc1C#N [Compound A91] |
| 1020 | 3 | 335 | CC(C)Cc1ccc(Nc2ncc(-c3cccc(C#N)c3)cn2)cc1 [Compound A92] |
| 276 | 2 | 132 | Cc1ccc(C#N)cc1-c1cnc(Nc2ccc(CC(C)C)cc2)nc1 [Compound A93] |
| 869 | 2 | 438 | Cc1cc(C#N)cc(-c2cnc(Nc3ccc(CC(C)C)cc3)nc2)c1 [Compound A94] |
| 10000 | – | 10000 | CC(C)Cc1ccc(Nc2ncc(-c3ccc(C#N)cn3)cn2)cc1 [Compound A95] |
| 10000 | 9 | 1110 | CC(C)Cc1ccc(Nc2ncc(-c3cc(C#N)ccn3)cn2)cc1 [Compound A96] |
| 10000 | 5.6 | 1800 | CC(C)Cc1ccc(Nc2ncc(-c3ccncc3)cn2)cc1 [Compound A99] |
| 1430 | 5.1 | 283 | CC(C)Cc1ccc(Nc2ncc(-c3ccc(=O)[nH]c3)cn2)cc1 [Compound A100] |
| 3840 | 4.7 | 822 | Cc1cc(-c2cnc(Nc3ccc(CC(C)C)cc3)nc2)cc(C)n1 [Compound A101, 5-(2,6-dimethylpyridin-4-yl)-N-(4-isobutylphenyl)pyrimidin-2-amine] |
| 10000 | 1 | 10000 | CC(C)Cc1ccc(Nc2ncc(-c3ccccc3)cn2)cc1 [Compound A102] |
| 10000 | 1.3 | 7680 | Cc1ccc(-c2cnc(Nc3ccc(CC(C)C)cc3)nc2)cc1 [Compound A103] |
| 4.1 | 1.9 | ≤ 2.5 | CC(C)Cc1ccc(Nc2ncc(C(=O)c3ccncc3F)cn2)cc1 [Compound A116] |
| 10000 | 1.5 | 6490 | Cc1cncc(F)c1C(=O)c1cnc(Nc2ccc(CC(C)C)cc2)nc1 [Compound A117] |
| 6.6 | 1.8 | 3.7 | CC(C)Cc1ccc(Nc2ncc(C(=O)c3ccncc3Cl)cn2)cc1 [Compound A118] |
| 160 | 5 | 31 | CC(C)Cc1ccc(Nc2ccc(C(=O)c3ccncc3F)cn2)cc1 [Compound A122] |
| 201 | 5 | 41 | CC(C)Cc1ccc(Nc2ccc(C(=O)c3ccncc3Cl)cn2)cc1 [Compound A123] |
| 34 | 3.8 | 8.9 | Cc1cc(CC(C)C)ccc1Nc1ncc(C(=O)c2ccncc2)cn1 [Compound A128] |
| 3.5 | 2.4 | ≤ 2.5 | CC(C)Cc1ccc(Nc2ncc(C(=O)c3ccncc3)cn2)c(F)c1 [Compound A129] |
| 10 | 1.8 | 5.7 | COc1cc(CC(C)C)ccc1Nc1ncc(C(=O)c2ccncc2)cn1 [Compound A131] |
| 797 | 3 | 265 | CC(C)Cc1ccc(Nc2ncc(C(=O)c3cccnc3)cn2)cc1 [Compound A133] |
| 24 | 4.8 | 5 | CC(C)Cc1ccc(Nc2ncc(Cc3ccncc3)cn2)cc1 [Compound A138] |
| 18 | 3.2 | 5.5 | CC(C)Cc1ccc(Nc2ncc(C(F)(F)c3ccncc3)cn2)cc1 [Compound A139] |
| 10000 | 1 | 10000 | CC(C)Cc1ccc(Nc2ncc(-c3cc[nH]c(=O)c3)cn2)cc1 [Compound A141] |
